Assay results: PMC3879630 (Molecular & Cellular Proteomics : MCP, 2013)
Substitutions are numbered along the chain they refer to.

Experiments:
Experiment in all cases: biotin-switch assay, anti-GST western blot
Format in all cases: binding
RNF41 [1] = biological target: T1, RNF41 (Homo sapiens, UniProt Q9H4P4, C134S); settings: covalent (S-nitrosylation of cysteine); 100 μM GSNO
T1 sequence (Q9H4P4 1-317 C134S): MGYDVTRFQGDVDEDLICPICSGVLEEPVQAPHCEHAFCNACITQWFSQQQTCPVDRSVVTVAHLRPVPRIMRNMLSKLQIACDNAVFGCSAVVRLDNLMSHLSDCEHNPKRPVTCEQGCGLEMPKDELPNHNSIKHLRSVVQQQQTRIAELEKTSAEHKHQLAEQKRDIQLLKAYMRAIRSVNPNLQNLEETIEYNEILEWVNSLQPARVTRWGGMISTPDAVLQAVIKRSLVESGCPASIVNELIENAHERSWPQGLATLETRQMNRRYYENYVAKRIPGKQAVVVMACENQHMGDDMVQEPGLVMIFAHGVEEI

RNF41 [2] = biological target: T2, RNF41 (Homo sapiens, UniProt Q9H4P4, C106S); settings: covalent (S-nitrosylation of cysteine); 100 μM GSNO
T2 sequence (Q9H4P4 1-317 C106S): T1 sequence (Q9H4P4 1-317 C134S) with C106S, S134C

RNF41 [3] = biological target: T3, RNF41 (Homo sapiens, UniProt Q9H4P4, C238S); settings: covalent (S-nitrosylation of cysteine); 100 μM GSNO
T3 sequence (Q9H4P4 1-317 C238S): T1 sequence (Q9H4P4 1-317 C134S) with S134C, C238S

RNF11 [4] = biological target: T4, RNF11 (Homo sapiens, UniProt Q9Y3C5); settings: covalent (S-nitrosylation, Cys4); 100 μM GSNO, 1 h; GSH control
T4 sequence (Q9Y3C5 1-154): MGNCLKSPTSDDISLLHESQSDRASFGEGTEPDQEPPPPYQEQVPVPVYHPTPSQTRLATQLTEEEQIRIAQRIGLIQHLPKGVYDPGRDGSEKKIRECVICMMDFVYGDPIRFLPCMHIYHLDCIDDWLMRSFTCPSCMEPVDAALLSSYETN

RNF141 [5] = biological target: T5, RNF141 (Homo sapiens, UniProt Q8WVD5, C82S); settings: covalent (S-nitrosylation of cysteine); 100 μM GSNO
T5 sequence (Q8WVD5 1-230 C82S): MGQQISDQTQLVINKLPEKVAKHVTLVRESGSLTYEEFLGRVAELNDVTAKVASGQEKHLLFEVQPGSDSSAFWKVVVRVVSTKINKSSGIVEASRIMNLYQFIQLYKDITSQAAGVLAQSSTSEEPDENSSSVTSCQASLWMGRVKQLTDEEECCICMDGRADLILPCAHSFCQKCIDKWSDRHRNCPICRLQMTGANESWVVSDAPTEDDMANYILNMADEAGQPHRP

RNF11 [6] = biological target: T6, RNF11 (Homo sapiens, UniProt Q9Y3C5, C4S); settings: covalent (S-nitrosylation of cysteine); 100 μM GSNO
T6 sequence (Q9Y3C5 1-154 C4S): T4 sequence (Q9Y3C5 1-154) with C4S

RNF141 [7] = biological target: T7, RNF141 (Homo sapiens, UniProt Q8WVD5); settings: covalent (S-nitrosylation of cysteine); 100 μM GSNO
T7 sequence (Q8WVD5 1-230): T5 sequence (Q8WVD5 1-230 C82S) with S82C

N[C@@H](CCC(=O)N[C@@H](CSN=O)C(=O)NCC(=O)O)C(=O)O [GSNO]
S-nitrosylation (BSM) (RNF41 [1]): C134S and C238S mutants have minimal effect on the S-nitrosylation of RNF41 | S-nitrosylation (BSM) (RNF41 [2]): The C106S RNF41 protein S-nitrosylation signal is dramatically reduced compared with WT RNF41 | S-nitrosylation (BSM) (RNF41 [3]): C134S and C238S mutants have minimal effect on the S-nitrosylation of RNF41 | biotin-switch assay, anti-GST western blot (RNF11 [4]): Cys4 is S-nitrosylated in RNF11 | S-nitrosylation (BSM) (RNF141 [5]): The C82S and C175S RNF141 proteins both show reduced S-nitrosylation compared with WT RNF141 | S-nitrosylation (BSM) (RNF11 [6]): The C4S RNF11 protein is not S-nitrosylated | S-nitrosylation (BSM) (RNF141 [7]): The C82S and C175S RNF141 proteins both show reduced S-nitrosylation compared with WT RNF141
